In US20130005749A1, “NOVEL FORMULATION AND TREATMENT METHODS” (The University of Queensland, priority 2011, published 2013):
Values belong to the compound of their own block, whether it stands above or below them.

What was measured:
[1] = system: inflammatory bowel disease; conditions: after one year; Ansari et al. 2008; cited from earlier work
[2] = system: ulcerative colitis; assay: Human patient R-LS with ulcerative colitis
Procedure: Because treatment with AZA and 6-MP was not an option, they were treated instead with 6-TG using the conventional therapeutic protocol, namely bolus administration of 40 mg per day (R-LS weighs approximately 60 kg) and 5-aminosalicylic acid.
Again, they were treated with 6-TG using the conventional therapeutic protocol, namely bolus administration of 40 mg per day and balsalazide. […] Maintenance therapy to prevent relapse was again prescribed using a lower dose of balsalazide.
Given their clinical history, the inventors were reluctant to prescribe another bolus dose of 6-TG due to the known hepatotoxic side-effects that could occur.
Accordingly, R-LS was given 60 mg per day 6-TG in a divided dosage (3 separate doses of equal amounts). The doses were given at intervals throughout the day.

[3] = system: acute childhood leukemia; conditions: cited from earlier work; for prevalence of VOD in patients: acute childhood leukemia cases, Stork et al. 2010
[4] = system: Winnie (C57Bl/6 Muc2 Winnie/Winnie) mice; assay: Immunosuppression (venous blood leukocytes) and myelotoxicity in Winnie mice; type: in vivo; conditions: for immunosuppression (reductions in venous blood leukocytes): 11 days
Procedure: (§1) Male or female C57Bl/6 Winnie mice were gavaged twice daily for 11-days in an experiment with three groups (6 animals per group):
(§2) Group 1: 1.25 mg/kg 6TG evening and morning (total 2.5 mg/kg/d, N=6)
(§3) Group 3: 2.5 mg/kg/d 6TG in the morning and vehicle gavage in the afternoon ([…]).
(§4) Male or female C57Bl/6 Winnie mice were gavage once daily for 28-days in an experiment with two groups (6 animals per group):
(§5) Group 1: 0.5 mg/kg 6TG once daily gavage

[5] = system: Winnie (C57Bl/6 Muc2 Winnie/Winnie) mice; assay: SOS in Winnie mice; type: in vivo
Procedure: (§6) The total possible VOD score was 240.
as §1, §2, §3, §4, §5

[6] = system: Winnie (C57Bl/6 Muc2 Winnie/Winnie) mice; assay: Histological colitis scores in Winnie mouse model of spontaneous colitis; type: in vivo
Procedure: This experiment usesa mouse model of spontaneous colitis called Winnie(C57Bl/6 Muc2^Winnie/Winnie) due to a single SNP mutation in Muc2 in C57Bl/6 mice. The model resembles ulcerative colitis. The mutation confers an intestinal epithelial cell defect, which causes a Th17 dominant inflammatory response (Heazlewood et al. 2008 and Eri et al. 2011).
as §1, §2
Group 2: vehicle control twice daily (N=6), or
as §3
This experiment uses Winnie(C57Bl/6 Muc2^Winnie/Winnie).
as §4, §5
Group 2: vehicle control (N=6),

[7] = system: C57BL/6 mice; assay: Veno-occlusive disease (VOD/SOS) blinded histological score in C57BL/6 mice; conditions: 10 days
Source text: Veno-occlusive disease (or “VOD”) in each mouse was scored in a blinded fashion based on predetermined scoring criteria for sinusoidal endothelial damage (maximum 60), hepatic central vein damage (maximum 60) and inflammatory cell infiltrates using haematoxylin-eosin sections counterstained with vWF for endothelial cells and F4/80 for macrophages (maximum 120). The total possible VOD score was 240.
VOD was scored using the method described in Example 1.
Two groups of C57BL/6 mice were administered a large bolus dose of 6-TG (2.5 mg/kg body weight/day) either (1) orally (by gavage) or (2) intraperitoneally for a period of 10 days.
VOD in each mouse was then scored using the method described in Example 1.

[8] = system: HPRT−/− C57BL/6 mice; assay: VOD score in HPRT-/- mouse model; type: in vivo; conditions: all dosage levels including 1 and 2.5 mg/kg body weight, gavage each day for 14 days
Source text: as §6

[9] = 0.5 mg/kg once daily gavage, 28 days

SMILES: Cn1cnc([N+](=O)[O-])c1Sc1ncnc2nc[nH]c12 [AZA, 6-(3-methyl-5-nitroimidazol-4-yl)sulfanyl-7H-purine]
patients who stop therapy due to side-effects or non-responsiveness [1]: approximately 40% | adverse reactions ([2]; human, in vivo): life-threatening adverse reactions

SMILES: Sc1ncnc2nc[nH]c12 [Formulation 6-MP, 3,7-dihydropurine-6-thione]
prevalence of VOD in patients [3]: not observed | patients who stop therapy due to side-effects or non-responsiveness [1]: approximately 40% | adverse reactions ([2]; human, in vivo): life-threatening adverse reactions

SOS [5, 9]: did not occur | SOS ([5]; 2.5 mg/kg/d once daily gavage × 11 days): causes SOS | SOS ([5]; split 1.25 mg/kg b.d dose, 11 days): SOS is largely avoided | VOD ([7]; 2.5 mg/kg body weight/day bolus by oral gavage): exhibited VOD | VOD ([7]; 2.5 mg/kg body weight/day bolus intraperitoneally): VOD was not observed | VOD score [8]: VOD was shown to be abrogated
SMILES: Nc1nc2nc[nH]c2c(=S)[nH]1 [Formulation 6-TG, 2-amino-6,7-dihydro-3H-purine-6-thione]
Immunosuppression [4, 9]: mild | myelotoxicity [4, 9]: did not have myelotoxicity | immunosuppression (reductions in venous blood leukocytes) ([4]; single full dosing 2.5 mg/kg/d): moderate immunosuppression | immunosuppression (reductions in venous blood leukocytes) ([4]; split dosing 1.25 mg/kg twice daily): moderate immunosuppression | clinical effectiveness in treating the disease compared with 6-MP ([3]; Stork et al. 2010 (and others)): equivalent or even more clinically effective | prevalence of VOD in patients [3]: high prevalence of VOD | Histological colitis scores ([6]; 0.5 mg/kg/d once daily gavage, 28 days): significantly improved spontaneous colitis | Histological colitis scores ([6]; 1.25 mg/kg twice daily gavage, 11 days): significantly improved spontaneous colitis | Histological colitis scores ([6]; 2.5 mg/kg/d gavaged once daily, 11 days): significantly improved spontaneous colitis | response to the treatment ([2]; 60 mg per day in 3 separate equal doses, six months (relapse December 2010)): once again effective | response to the treatment ([2]; bolus 40 mg per day with 5-aminosalicylic acid, after 4 months (2003)): extremely positive response | response to the treatment ([2]; bolus 40 mg per day with balsalazide, ~5-6 months (relapse 2006)): positive response

SMILES: O=C(O)c1cc(/N=N/c2ccc(S(=O)(=O)Nc3ccccn3)cc2)ccc1O [sulfasalazine]
adverse reactions ([2]; patient history before 2003): life-threatening adverse reactions
